Source: PMC5881420, “Identification, Expression Patterns, and Functional Characterization of Chemosensory Proteins in Dendroctonus armandi (Coleoptera: Curculionidae: Scolytinae)” (Frontiers in Physiology, 2018)

Tests used:
DarmCSP2 = DarmCSP2 (Dendroctonus armandi, UniProt A0A3S7PYZ0); assay: Fluorescence competitive binding assay (1-NPN displacement); conditions: for IC50: 2 μM DarmCSP2 and 2 μM 1-NPN titrated with ligand 2–16 μM, three independent measurements; for Ki: calculated from IC50: KD = [IC50]/(1+[1-NPN]/K1-NPN)
Sequence of DarmCSP2 (A0A3S7PYZ0 entry or part of it): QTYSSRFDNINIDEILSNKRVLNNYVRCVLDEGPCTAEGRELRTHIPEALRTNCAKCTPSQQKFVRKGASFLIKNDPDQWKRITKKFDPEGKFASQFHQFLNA
Procedure: A Hitachi F-4500 fluorescence spectrophotometer was used to measure emission fluorescence spectra, in a right-angle configuration with a 1 cm light-path quartz cuvette. The slit width was […] for both excitation and emission. DarmCSPs were dissolved to 2 μM in 50 mM Tris-HCl buffer (pH = 7.4), whereas fluorescent probe N-phenyl-1-naphthylamine (1-NPN) and all semiochemicals were dissolved in methanol with a 1 mM stock solution. […] Excitation of 1-NPN occurred at 337 nm, with the emission spectra recorded from 360 to 500 nm. Corresponding fluorescence intensity values were plotted against free 1-NPN concentration to determine DarmCSP binding constants. Bound 1-NPN concentrations were assessed based on fluorescence intensity, assuming DarmCSPs were 100% active and protein: ligand = 1:1 at saturation. The dissociation-constants curve was linearized with Scatchard plots in Prism 6.0 (GraphPad Software, CA, USA).
Ligand affinity was measured with competitive binding assays. Fourteen compounds were selected based on previous reports (Zhang et al., [2010]; Xie and Lv, [2012]; Chen et al., [2015]; Zhao et al., [2017a],[b]), including 10 host volatiles and four D. armandi pheromones (Table 2). A mixture of 2 μM DarmCSP and 2 μM 1-NPN was titrated with each ligand to final concentrations of 2–16 μM. Corresponding fluorescence intensities were recorded from three independent measurements. Dissociation constants of competitive ligands were calculated according to IC50 values, using the equation: KD = [IC50]/(1+[1-NPN]/K1−NPN), where IC50 is competitive-ligand concentration at half the initial fluorescence of 1-NPN, 1-NPN is the concentration of free 1-NPN, and K1−NPN is the dissociation constant of DarmCSP with 1-NPN.

D. armandi antennae = assay: Electroantennogram (EAG) of antennae after RNAi of DarmCSP2; set-up: species or system Dendroctonus armandi; conditions: 48 h post-injection; semiochemical 10 μg/μL in hexane; compared with non-injected and water-injected controls; P < 0.05
Procedure: Freshly and synchronously emerged adults were anesthetized on glass petri dishes placed for 30 min in an ice bath, before injection with 0.2 μL dsCSP2 into the hemocoel at the suture under the hindleg. Injections used Hamilton Microliter™ syringes (700 series, RN) with 32G sharp-point needles (Hamilton, Switzerland). Controls were either injected with 0.2 μL DEPC-treated water or not injected. Subjects were then transferred onto wet filter paper placed in clear glass petri dishes for continuous culture (at 20 ± 1°C, 50% humidity). Three males and three females were removed at different time intervals (12, 24, and 48 h) from each treatment group for storage at −80°C until qRT-PCR analysis. Three replicates were performed per treatment group (non-injected, water-injected, dsCSP2-injected). RNA isolation, cDNA synthesis, and qRT-PCR procedure followed methods described above (“RNA isolation and cDNA synthesis” and “Expression patterns of CSP genes across different life stages and tissues”).
Electroantennograms (EAG) were used to detect RNAi efficiency of dsCSP2 and determine DarmCSP2 function in binding semiochemicals. Methods were modified from a previous study (Zhang et al., [2010]). Subject beetles were chosen based on post-RNAi qRT-PCR and anesthetized in an ice bath. Antennae were carefully excised at their base with a scalpel and immediately connected between two electrode holders using Spectra 360 electrode gel.
Semiochemicals were selected based on the results of fluorescence binding assays and dissolved to 10 μg/μL in hexane. Hexane alone acted as a blank control and 1 μg/μL 1-hexanol was used as a standard to normalize all EAG recordings (Zhang et al., [2010]). Semiochemical solutions (20 μL) were loaded onto filter paper strips (5 × 30 mm) and then transferred into a Pasteur pipette. The pipette tip was then inserted into a small hole in the wall of a steel tube (15 mm diameter × 15 cm length). The tube was connected to an air stimulus controller (CS-05b Syntech, the Netherlands) for constant humidified airflow delivery at a rate of 40 mL/min. The open end of the tube was positioned 1 cm before an antenna affixed between two electrode holders.
To stimulate the antenna, semiochemical-containing air was introduced through the pipette into the main air flow at a rate of 20 mL/min for 0.2 s. Each stimulus was separated by at least a 1 min interval to ensure complete antenna recovery. Signals were recorded using an IDAC-2 unit plus amplifier and Syntech EAG 2000 (Syntech, Netherlands). The control and standard were tested before and after every semiochemical solution. Antennae from12 individuals (six males and six females) were tested, with three replicates per antenna. To calculate EAG values, mean responses of the solvent control before and after exposure were subtracted from mean sample responses, then converted to a percentage of the accompanying standard (Zhang et al., [2010]).

DarmCSP1 = assay: Fluorescence binding assay of 1-NPN with DarmCSP1; set-up: species or system Dendroctonus armandi; conditions: DarmCSP1, 2 μM protein titrated with 1-NPN
Description: (§1) To better characterize DarmCSP function, three antennae-preferential genes (DarmCSP 1–3) were chosen for expression in bacteria. Signal peptides were removed to generate properly folded proteins. PCR products encoding mature proteins were amplified using gene-specific primers (Table S1), cloned into pGEM-T easy vectors (Promega, Madison, USA), then excised and cloned into the bacterial expression vector pET32a(+) (Novagen, Madison, WI), between BamHI and XhoI restriction sites. Successful cloning was verified through PCR and sequencing. Plasmids containing the correct insert were extracted and transformed into E. coli BL21 (DE3) competent cells. Positive clones were incubated at 37°C until absorbance = 0.6 at OD 600, and protein expression was induced with IPTG (isopropyl-β-D-1-thiogalactopyranoside) treatment (28°C for 6 h) to a final concentration of 0.5 mM. […]
(§2) Recombinant proteins were purified with N-termini His tagged from the supernatant using a Ni-NTA-Sefinose Column (Sangon, Shanghai, China), and placed in a buffer (25 mM Tris-HCl, 50 mM NaCl, and 2 mM CaCl2, pH 7.6) for dialysis. To avoid confounding effects in fluorescence binding assays, His-tags were excised using Recombinant Enterokinase with His-tag (rEK) (Sangong, Shanghai, China), and the resultant complex was cleared through a Ni-NTA-Sefinose Column. […]

DarmCSP3 = assay: Fluorescence binding assay of 1-NPN with DarmCSP3; set-up: species or system Dendroctonus armandi; conditions: DarmCSP3, 2 μM protein titrated with 1-NPN
Description: as §1, §2

Row | Molecule | IC50 (DarmCSP2) [µM] | Ki (DarmCSP2) [µM] | Effect of dsCSP2 injection on antennae EAG activity in response to the semiochemical (D. armandi antennae) | Affinity to 1-NPN (DarmCSP1) | Affinity to 1-NPN (DarmCSP3)
1 | (S)-(-)-Limonene | 5.51 ± 0.42 | 3.41 ± 0.04 |  |  | 
2 | CC1=CC[C@H](C(C)C)C=C1 [(R)-(-)-a-Phellandrene] | 8.77 ± 0.24 | 5.66 ± 0.16 |  |  | 
3 | C=C(C)[C@H]1CC=C(C)CC1 [(R)-(+)-Limonene] | 6.36 ± 0.25 | 4.1 ± 0.16 |  |  | 
4 | (+)-α-Pinene | 3.6 ± 0.03 | 2.33 ± 0.02 | significantly reduced |  | 
5 | CC1=CCC2C(C1)C2(C)C (single isomer, unassigned; (+)) [(+)-3-Carene] | 3.05 ± 0.71 | 1.97 ± 0.46 | significantly reduced |  | 
6 | CC1=C[C@H](O)[C@@H]2C[C@H]1C2(C)C (relative stereo) [(-)-trans-Verbenol] | 4.33 ± 0.1 | 2.8 ± 0.07 |  |  | 
7 | C=CC(=C)CCC=C(C)C [Myrcene] |  |  | significantly reduced |  | 
8 | C=C1[C@H]2CC[C@H](C2)C1(C)C [(+)-Camphene] |  |  | significantly reduced |  | 
9 | c1ccc(Nc2cccc3ccccc23)cc1 [1-NPN, N-phenyl-1-naphthylamine] |  |  |  | no obvious affinity | no obvious affinity
10 | (+)-β-Pinene | 5.9 ± 1.31 | 3.8 ± 0.84 | significantly reduced |  | 
11 | CC[C@@H]1O[C@]2(C)CCC[C@H]1O2 (racemic) [(±)-exo-Brevicomin] | 14.48 ± 0.11 | 9.34 ± 0.07 |  |  | 
12 | CC1=CCC2CC1C2(C)C (stereo not drawn) [(–)-α-Pinene] | 2.53 ± 0.11 | 1.64 ± 0.08 |  |  | 
13 | (–)-β-Pinene | 5.93 ± 0.17 | 3.83 ± 0.11 | significantly reduced |  | 
14 | (±)-Frontalin | 26.2 ± 1.94 | 16.9 ± 1.26 |  |  | 
